Measured values: publication PMC10060287 (Pharmacological Reports, 2023)
Entries after “also recorded” stand apart in the source; their conditions may differ. Ends that are not written are not given here.

What was measured:
µ-opioid receptor (µOR) [1] = biological target: T1, µ-opioid receptor (µOR) (Rattus norvegicus, UniProt P33535); type: binding, Wistar rat (brain membranes)
µ-opioid receptor (µOR) [2] = biological target: T1, µ-opioid receptor (µOR); test: Saturation binding of [^3H]DAMGO with varying G-peptide concentrations; type: Wistar rat (brain membranes)

T1 sequence (P33535 whole entry): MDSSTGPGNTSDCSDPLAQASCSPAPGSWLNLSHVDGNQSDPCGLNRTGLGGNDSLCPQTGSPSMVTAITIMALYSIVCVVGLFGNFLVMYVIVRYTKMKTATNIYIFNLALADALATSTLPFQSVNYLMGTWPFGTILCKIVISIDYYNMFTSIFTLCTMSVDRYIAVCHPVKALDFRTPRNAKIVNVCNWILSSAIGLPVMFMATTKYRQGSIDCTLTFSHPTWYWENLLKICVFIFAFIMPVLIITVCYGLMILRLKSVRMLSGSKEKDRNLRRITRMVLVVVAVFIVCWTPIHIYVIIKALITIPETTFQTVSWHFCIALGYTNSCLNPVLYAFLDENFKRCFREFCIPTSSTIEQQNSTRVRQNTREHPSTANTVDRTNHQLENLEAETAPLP

IIKNNLKDCGLF-NH2 [G-peptide]
G-peptide concentration needed for characteristic shift in the binding curve of morphine (µ-opioid receptor (µOR) [1]): ≥ 100 µM | affinity of the peptide (µ-opioid receptor (µOR) [1]): micromolar level; also recorded: micromolar range | allosteric modulation of µOR (µ-opioid receptor (µOR) [1]): binds the µ-opioid receptor and acts as an allosteric modulator | dose dependence of G-peptide effect on morphine binding (µ-opioid receptor (µOR) [1]): increases µOR affinity for its agonist morphine in a dose-dependent way | orthosteric binding of the G-peptide (µ-opioid receptor (µOR) [1]): no significant orthosteric coupling to µOR; also recorded: inactive through the orthosteric binding site of µOR; also recorded: did not interact directly with the orthosteric binding site | affinity increase caused by the G-peptide (µ-opioid receptor (µOR) [2]; saturation experiments for [H^3]DAMGO): dose dependency of the affinity increase | lowest G-peptide concentration affecting the binding (µ-opioid receptor (µOR) [2]; saturation experiments with radio-ligand): 10 µM | Bmax of DAMGO upon adding G-peptide (µ-opioid receptor (µOR) [2]; two sets of experiments, G-peptide 0.01 to 25 µM and 0.01 to 200 µM): concentration-dependent decrease in the Bmax value of DAMGO | equilibrium dissociation constant Kd and Bmax of DAMGO upon adding G-peptide (µ-opioid receptor (µOR) [2]; varying concentrations of the G-peptide): change in both the equilibrium dissociation constant Kd and Bmax
